Test results from patent US20050197407A1, “Method and preparation for reducing irritation and/or inflammatory reaction in human skin” (PCR Technology Holdings, LC, priority 2004, published 2005).

System: facial skin of humans
Test: Retinoid irritation test: idebenone pre-treatment then prescription retinoid, clinician grading and TEWL
Type: in vivo
Experimental: In a test, idebenone was applied to the facial skin of humans. Two different test sites were setup whereby, one site was applied with idebenone twice a day for 2 weeks followed by a 2 week application period of a prescription retinoid (once a day, as prescribed). The remaining site was applied for 2 weeks just the prescription retinoid (once a day, as prescribed). Each test site was evaluated by a trained clinician for irritation and roughness using a 0 (none) to 4 (severe) scale pre and post retinoid treatment. Additionally, transepidermal water loss measurements (TEWL) were also made at the same time as visual evaluations.
FIG. 1 graphically depicts the results of the test.

[1] = facial skin, pre vs post 2 week retinoid treatment once a day, idebenone site pre-treated twice a day for 2 weeks

COC1=C(OC)C(=O)C(CCCCCCCCCCO)=C(C)C1=O [Idebenone, 6-(10-hydroxydecyl)-2,3-dimethoxy-5-methyl-1,4-benzoquinone]
increase in irritation (0 (none) to 4 (severe) scale, trained clinician) [1]: moderate to minimal increase | increase in roughness (0 (none) to 4 (severe) scale, trained clinician) [1]: moderate to minimal increase | increase in transepidermal water loss measurements (TEWL) [1]: moderate to minimal increase | irritation potential produced by the prescription retinoid (idebenone used as a pre-treatment for 2 weeks): significantly reduced
